Test results from US20250302840A1, “COMBINATION THERAPIES” (Janssen Pharmaceutica NV, priority 2021, published 2025).
Where a name gives a salt, the structure may show the parent alone. Marks after values point to notes of the source that are not given here.

Tests used:
[1] = tested on: iCell® Cardiomyocytes2; test: Ca2+-fluorescence assay in human pluripotent stem cell-derived cardiomyocytes (CTCM human); format: cell-based; set-up: key to Hazard scoring, Color @ 0.1 μM / Hazard scoring, Color @ 0.2 μM / Hazard scoring, Color @ 0.5 μM / Hazard scoring, Color @ 1 μM / Hazard scoring, Color @ 2.5 μM / Hazard scoring, Color @ 5 μM / Hazard scoring, Color @ 0.3 μM / Hazard scoring, Color @ 3 μM / Hazard scoring, Color @ 10 μM / Hazard scoring, Color @ 30 μM: Green: No concern; Yellow: Low concern; Red: High concern; Black: Very high concern due to arrhythmic events
Protocol: Compounds were tested in the 96-well plates.
Compounds were tested at 0.1 μM, 0.2 μM, 0.5 μM, 1 μM, 2.5 μM and 5 μM (n=4 per dose) on Cor.4U®-Cardiomyocytes or on iCell® Cardiomyocytes2.
Alternatively, compounds were tested at 0.1 μM, 0.3 μM; 1 μM, 3 μM, 10 μM and 30 μM (n=4 per dose) mostly on iCell® Cardiomyocytes2.
Vehicle control: Dimethylsulfoxide (DMSO). The solutions of the compound in DMSO or its solvent (final concentration of 0.1% DMSO; n=8).
Tested compounds were dissolved in DMSO at 1000-fold the intended concentrations.
A compound “mother-plate” was made, containing the test compounds and positive and negative controls at 1000-fold the final concentrations. At the experiment day, these stock solutions were diluted with Tyrode (Sigma), supplemented with 10 mM HEPES (Gibco), to 2-fold the intended concentration (in round bottom compound plates). Final DMSO concentration in test solutions and vehicle control was 0.1%.
Second line hSC derived cardiomyocyte called iCell® Cardiomyocytes2 were purchased from FUJIFILM Cellular Dynamics (USA). The experiments with test drugs are carried out 5 to 7 days after plating the cells onto the plate to have a living, beating monolayer of hiPSC-derived cardiomyocytes. The beating monolayer in 96-well-plates are normally taken from 2 Vials of frozen iCell® Cardiomyocytes2 (˜5 million cells/vial), which will be plated onto […] 96-well plates (z50K/well).
At least one hour before the start of the experiments the normal cell medium was replaced with Tyrode solution with Calcium dye (see below).
Cal 520 dye (AAT Bioquest) was dissolved in 11 ml of Tyrode supplemented with 10 mM HEPES and warmed up to 37 C before adding to the cells.
35 μl cell culture medium was removed from each well and replaced with 35 μl of pre-warmed Cal 520 dye solution and cell plate was incubated for 45 min at 37° C./5% CO2. Cells were incubated for 5 min at 37° C.
Spontaneous electrical activity is recorded, using Cal520™ (AAT Bioquest) calcium fluorescence-dye signalling. This dye integrates the total intracellular calcium activity over the whole well. A bottle of Cal520 dye ([…], MW: 1103/mol) is dissolved with 50 μl DMSO as a stock solution of 0.9 mM. 50 μL of the stock solution of the dye was added to 10 ml Tryodes solution to have dye concentration of 4.5 μM. Subsequently, 35 μl of this dye solution was added into each well, to have a final dye concentration of 1.58 μM. The current dye protocol on this CTCM human assay was established recently (Ivan Kopljar et al, Journal of Pharmacological and toxicological methods 2018. 91: 80-86; Lu et al., Tox Sci 2019. 170 (2): 345-356).
Fluorescent signals (Ca^2+ transient morphology) were measured using the Functional Drug Screen System (FDSS/pCell; Hamamatsu, Japan) and the recordings were subsequently analyzed off-line, using appropriate software e.g., Notocord.
The cell plate was loaded into the FDSS/pCell for a test run: Ca^2+ transients were measured for 4 minutes to check for synchronous beating of the cardiomyocytes in each well. All 96 wells were measured simultaneously (sampling interval: 0.06 s, short exposure time: 10 ms; excitation wavelength 480 nm; emission wavelength 540 nm; FDSS/pCell warmed to 37° C.).
During the compound addition step, 100 μl of the respective double-concentrated test solutions was pipetted into each well simultaneously.
Data were analyzed off-line using appropriate software e.g., Notocord-Hem (version 4.3).
The following parameters of the Ca^2+ transient morphology were measured: • beat rate (BR) • amplitude of the Ca^2+ transient (Amp), • CTD90: Ca^2+ transient duration at 90% (time to 90% of the initial base value).
The presence of various ‘arrhythmia-like’ activities were also noted during the experimental periods. […]

[2] = tested on: MOLM-13 tumors; test: Efficacy of combinations in MOLM-13 (KMT2a-r) IV model in NSG mice; format: in vivo; conditions: azacitidine 2 mg/kg ip QD × 7; venetoclax 100 mg/kg po QD × 28; Compound A1 10 mg/kg po QD × 28
Protocol: Each mouse received an injection of 1×10^5 MOLM-13 cells, and all other parameters were conducted as described for experiment (10).

[3] = Mouse PK (in vivo T1/2 and oral bioavailability); set-up: species or system CD-1 mice; conditions: for In vivo T1/2 (IV): IV 0.5 or 1.0 mg/kg
Protocol: In vivo pharmacokinetics (PK) were assessed in fasted male CD-1 mice (age 6-8 weeks) following a single intravenous (IV, 0.5 or 1.0 mg/kg administered at 2.5 ml/kg) or oral (PO, 5 mg/kg administered at 10 ml solution/kg) dose of test article formulated in a 20% (w:vol) HP-β-CD solution or in Pyrogen free water.
Plasma and/or whole blood samples were collected from the dorsal metatarsal vein at desired timepoints via serial capillary microsampling (approx. 0.03 mL) using EDTA as an anticoagulant. Concentrations of compound in the plasma and blood samples were analyzed using a qualified LC-MS/MS method. In silico analysis of main pharmacokinetic parameters was performed using WinNonlin (Phoenix™, version 6.1) or similar software.)

[4] = tested on: OCI-AML3 tumors; test: Efficacy of combinations in OCI-AML3 (NPM1c) IV model in NSG mice; format: in vivo; conditions: azacitidine 2 mg/kg ip QD × 7; venetoclax 100 mg/kg po QD × 28; Compound A1 30 mg/kg po QD × 28
Protocol: Median survival was determined utilizing Kaplan-Meier survival analysis.

[5] = efficacious dose in mouse xenograft models of 30 mg/kg, (mouse, human)

| SMILES | Hazard scoring, Color @ 0.1 μM ([1]; 30 min incubation, Table 12) | Hazard scoring, Color @ 0.3 μM ([1]; 30 min incubation, Table 12) | Hazard scoring, Color @ 1 μM ([1]; 30 min incubation, Table 12) | Hazard scoring, Color @ 3 μM ([1]; 30 min incubation, Table 12) | Hazard scoring, Color @ 10 μM ([1]; 30 min incubation, Table 12) | Hazard scoring, Color @ 30 μM ([1]; 30 min incubation, Table 12) | % ILS [2] | other results |
| --- | --- | --- | --- | --- | --- | --- | --- | --- |
| CCN(C(=O)c1cc(F)ccc1Oc1nncnc1N1CCC2(C1)CN([C@H](CCCNCCOC)C(C)C)C2)C(C)C [Compound 11, (R)—N-ethyl-5-fluoro-N-isopropyl-2-((5-(2-(6-((2-methoxyethyl)amino)-2-methylhexan-3-yl)-2,6-diazaspiro[3.4]octan-6-yl)-1,2,4-triazin-6-yl)oxy)benzamide] | Green | Green | Green | Green | Green | Green |  |  |
| CCN(C(=O)c1cc(F)ccc1Oc1nncnc1N1CCC2(C1)CN([C@H](CCCN(C)CCOC)C(C)C)C2)C(C)C [Compound A1] | Green | Green | Green | Green | Green | yellow | 35* % | Margin CTCM human 10 μM vs free Cmax [1, 5]: > 16; Margin CTCM human 30 μM vs free Cmax [1, 5]: > 45 |
| CCN(C(=O)c1cc(F)ccc1Oc1nncnc1N1CCC2(C1)CN([C@H](CCCN(C)CCOC)C(C)C)C2)C(C)C [Compound A3, (R)—N-ethyl-5-fluoro-N-isopropyl-2-((5-(2-(6-((2-methoxyethyl) (methyl)amino)-2-methylhexan-3-yl)-2,6-diazaspiro[3.4]octan-6-yl)-1,2,4-triazin-6-yl)oxy) benzamide oxalate] |  |  |  |  |  |  |  | Hazard scoring, Color @ 0.1 μM ([1]; 30 min incubation, Table 11): Green; Hazard scoring, Color @ 0.2 μM ([1]; 0.2 μM, 30 min incubation, Table 11): Green; Hazard scoring, Color @ 0.5 μM ([1]; 0.5 μM, 30 min incubation, Table 11): Green; Hazard scoring, Color @ 1 μM ([1]; 30 min incubation, Table 11): Green; Hazard scoring, Color @ 2.5 μM ([1]; 2.5 μM, 30 min incubation, Table 11): Green; Hazard scoring, Color @ 5 μM ([1]; 5 μM, 30 min incubation, Table 11): Green; In vivo T1/2 (IV) ([3]; formulating agent Pyrogen free water): 9.0 h |
| CCN(C(=O)c1cc(F)ccc1Oc1nncnc1N1CCC2(C1)CN([C@H](CCCN(C)CCOC)C(C)C)C2)C(C)C [Compound A, (R)—N-ethyl-5-fluoro-N-isopropyl-2-((5-(2-(6-((2-methoxyethyl) (methyl)amino)-2-methylhexan-3-yl)-2,6-diazaspiro[3.4]octan-6-yl)-1,2,4-triazin-6-yl)oxy) benzamide] |  |  |  |  |  |  |  | In vivo T1/2 (IV) ([3]; formulating agent HP-β-CD): 6.7 h; Bioavailability (PO) ([3]; PO 5 mg/kg, formulating agent HP-β-CD): 17% |
| CC1(C)CCC(CN2CCN(c3ccc(C(=O)NS(=O)(=O)c4ccc(NCC5CCOCC5)c([N+](=O)[O-])c4)c(Oc4cnc5[nH]ccc5c4)c3)CC2)=C(c2ccc(Cl)cc2)C1 [Venetoclax, reference compound] |  |  |  |  |  |  | 6% | % ILS [4]: 0 (ns) % |
